# Columns and labels:
# [1] = target: T1, Proto-oncogene tyrosine-protein kinase Src (Homo sapiens, UniProt P12931); experiment: Inhibition of Src protein tyrosine kinase
# [2] = species on record: Oryctolagus cuniculus; experiment: Inhibition of the absorption of dentine slices by rabbit osteoclasts; type: functional
# [3] = Inhibition of Interleukin-1 alpha binding to Interleukin-1 receptor
# [4] = species on record: Homo sapiens; experiment: cells
# [5] = Selective inhibition of Src SH2 domain over ZAP-70 SH2 domain; type: functional
# [6] = Inhibition of thyroid-hormone induced bone resorption; type: functional
# [7] = target: T1, Proto-oncogene tyrosine-protein kinase Src; experiment: Inhibition of binding to Src SH2 domain; type: functional
# [8] = test system: HL-60; experiment: Percent cell death of cultured HL60 human leukemia cells at dose of 50 uM; type: functional
# [9] = target: Apoptosis regulator Bcl-2 (Homo sapiens, UniProt P10415); experiment: Inhibitory activity against Bcl-2 functioning; type: functional
# Chain of Apoptosis regulator Bcl-2 (P10415 whole entry): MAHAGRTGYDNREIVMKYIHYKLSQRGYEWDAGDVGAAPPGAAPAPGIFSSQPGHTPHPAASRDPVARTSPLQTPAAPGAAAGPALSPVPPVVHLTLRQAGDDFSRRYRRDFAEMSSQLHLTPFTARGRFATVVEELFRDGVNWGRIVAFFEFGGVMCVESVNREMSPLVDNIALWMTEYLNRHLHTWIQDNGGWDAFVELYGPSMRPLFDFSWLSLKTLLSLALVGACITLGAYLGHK
# [10] = test system: Rattus norvegicus; experiment: The compound was tested in vivo for suppressing LPS-stimulated plasma NOx production in rats; type: functional
# [11] = target: Nitric oxide synthase, inducible (Homo sapiens, UniProt P35228); experiment: Binding against the partially purified human Inducible nitric oxide synthase
# Chain of Nitric oxide synthase, inducible (P35228 whole entry): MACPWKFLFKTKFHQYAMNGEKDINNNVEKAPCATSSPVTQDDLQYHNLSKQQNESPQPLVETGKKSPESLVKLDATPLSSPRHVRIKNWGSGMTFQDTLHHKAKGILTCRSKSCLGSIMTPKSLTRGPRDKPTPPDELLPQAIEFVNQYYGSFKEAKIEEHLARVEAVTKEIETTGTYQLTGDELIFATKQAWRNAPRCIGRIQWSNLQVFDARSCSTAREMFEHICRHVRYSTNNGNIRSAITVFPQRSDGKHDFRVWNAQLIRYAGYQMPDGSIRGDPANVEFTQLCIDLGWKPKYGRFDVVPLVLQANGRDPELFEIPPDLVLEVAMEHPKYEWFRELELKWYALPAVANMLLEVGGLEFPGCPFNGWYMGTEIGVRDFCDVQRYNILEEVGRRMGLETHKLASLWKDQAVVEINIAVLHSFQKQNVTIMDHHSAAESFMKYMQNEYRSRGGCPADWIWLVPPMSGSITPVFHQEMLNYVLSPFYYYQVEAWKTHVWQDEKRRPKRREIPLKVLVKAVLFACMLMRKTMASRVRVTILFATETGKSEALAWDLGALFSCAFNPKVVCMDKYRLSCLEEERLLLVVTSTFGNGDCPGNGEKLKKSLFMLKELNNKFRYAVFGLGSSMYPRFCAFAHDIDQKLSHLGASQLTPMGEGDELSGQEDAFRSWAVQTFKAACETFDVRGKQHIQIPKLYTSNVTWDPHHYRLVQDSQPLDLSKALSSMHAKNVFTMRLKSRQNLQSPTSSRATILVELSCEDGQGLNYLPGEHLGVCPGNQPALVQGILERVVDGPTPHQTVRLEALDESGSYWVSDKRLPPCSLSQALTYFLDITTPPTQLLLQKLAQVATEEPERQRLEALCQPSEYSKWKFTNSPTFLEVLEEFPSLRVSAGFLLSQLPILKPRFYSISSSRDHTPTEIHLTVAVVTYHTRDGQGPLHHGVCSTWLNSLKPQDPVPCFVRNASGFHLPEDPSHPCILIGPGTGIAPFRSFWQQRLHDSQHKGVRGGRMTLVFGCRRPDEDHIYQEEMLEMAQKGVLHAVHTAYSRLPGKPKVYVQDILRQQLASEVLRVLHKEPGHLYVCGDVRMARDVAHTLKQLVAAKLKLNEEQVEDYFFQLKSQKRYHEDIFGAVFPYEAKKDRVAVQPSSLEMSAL
# [12] = Inhibitory activity
# [13] = target: Phosphodiesterase 1 (Homo sapiens, UniProt P54750+Q01064+Q14123); experiment: Inhibition of calmodulin-dependent PDE(3',5'-phosphodiesterase); type: functional
# [14] = target: T2, High affinity nerve growth factor receptor (Homo sapiens, UniProt P04629); experiment: Inhibition of NGF-stimulated Trk A in PC12 cells; type: cell-based, PC-12
# T2 sequence (P04629 whole entry): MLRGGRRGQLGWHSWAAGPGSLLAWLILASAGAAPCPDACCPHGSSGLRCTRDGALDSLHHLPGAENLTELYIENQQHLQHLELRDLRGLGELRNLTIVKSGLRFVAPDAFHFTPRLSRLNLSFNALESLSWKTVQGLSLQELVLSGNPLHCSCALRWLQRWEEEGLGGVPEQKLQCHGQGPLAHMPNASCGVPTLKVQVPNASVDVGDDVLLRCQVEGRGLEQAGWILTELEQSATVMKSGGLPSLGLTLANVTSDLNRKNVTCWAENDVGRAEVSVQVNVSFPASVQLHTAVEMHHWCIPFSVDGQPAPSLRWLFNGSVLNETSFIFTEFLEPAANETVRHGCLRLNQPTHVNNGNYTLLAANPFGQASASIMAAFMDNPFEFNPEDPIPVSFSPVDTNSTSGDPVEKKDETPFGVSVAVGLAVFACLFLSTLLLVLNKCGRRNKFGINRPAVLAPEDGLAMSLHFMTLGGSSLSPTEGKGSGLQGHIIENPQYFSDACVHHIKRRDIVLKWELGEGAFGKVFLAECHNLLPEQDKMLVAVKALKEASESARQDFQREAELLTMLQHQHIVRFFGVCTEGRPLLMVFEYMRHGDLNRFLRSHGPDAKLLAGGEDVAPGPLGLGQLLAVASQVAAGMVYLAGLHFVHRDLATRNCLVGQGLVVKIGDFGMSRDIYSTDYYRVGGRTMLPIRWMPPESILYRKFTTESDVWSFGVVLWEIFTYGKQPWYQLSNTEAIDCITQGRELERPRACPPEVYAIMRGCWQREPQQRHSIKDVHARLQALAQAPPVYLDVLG
# [15] = target: T2, High affinity nerve growth factor receptor; experiment: Inhibition of NGF-stimulated Trk A
# [16] = target: T3, Tumor necrosis factor receptor superfamily member 16 (Homo sapiens, UniProt P08138); experiment: Competitive binding against Nerve growth factor to p75-NGF receptor in PC12 cells; type: cell-based, PC-12
# T3 sequence (P08138 whole entry): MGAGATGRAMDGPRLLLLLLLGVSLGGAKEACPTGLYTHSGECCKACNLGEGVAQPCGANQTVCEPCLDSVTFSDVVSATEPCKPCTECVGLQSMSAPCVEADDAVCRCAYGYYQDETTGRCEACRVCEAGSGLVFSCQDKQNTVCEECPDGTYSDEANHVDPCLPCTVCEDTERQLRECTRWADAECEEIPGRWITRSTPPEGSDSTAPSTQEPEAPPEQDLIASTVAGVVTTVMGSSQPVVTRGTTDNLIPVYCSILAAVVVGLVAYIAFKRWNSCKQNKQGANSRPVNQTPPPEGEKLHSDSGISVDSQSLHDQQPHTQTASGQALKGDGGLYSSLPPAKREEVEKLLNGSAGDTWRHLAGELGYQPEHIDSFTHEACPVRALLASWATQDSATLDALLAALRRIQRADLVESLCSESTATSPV
# [17] = target: T4, Growth factor receptor-bound protein 2 (Homo sapiens, UniProt P62993); experiment: Inhibition of Growth factor receptor bound protein 2 SH2-domain binding
# Target sequence in this assay (P62993 whole entry, the tested form may be a part): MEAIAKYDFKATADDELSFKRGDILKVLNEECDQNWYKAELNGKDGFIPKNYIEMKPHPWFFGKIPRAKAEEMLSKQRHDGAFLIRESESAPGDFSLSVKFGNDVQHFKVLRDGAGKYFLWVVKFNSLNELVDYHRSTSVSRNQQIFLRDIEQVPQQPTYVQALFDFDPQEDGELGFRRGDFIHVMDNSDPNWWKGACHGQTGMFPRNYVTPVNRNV
# [18] = target: T4, Growth factor receptor-bound protein 2; experiment: Inhibition of c-Met interaction with Grb2 SH2 domain in Okajima (human gastric carcinoma) cells at 30 nM; type: functional; details: Stomach
# Target sequence in this assay (P62993 whole entry, looked up, the tested form may be a part): as the sequence (P62993 whole entry, the tested form may be a part) above
# [19] = test system: CHO; experiment: Inhibition of [125I]RANTES association with CCR5 expressed in CHO cells at 100 nM; type: functional, cell-based; details: Cricetulus griseus
# T1 sequence (P12931 2-536 limits assumed): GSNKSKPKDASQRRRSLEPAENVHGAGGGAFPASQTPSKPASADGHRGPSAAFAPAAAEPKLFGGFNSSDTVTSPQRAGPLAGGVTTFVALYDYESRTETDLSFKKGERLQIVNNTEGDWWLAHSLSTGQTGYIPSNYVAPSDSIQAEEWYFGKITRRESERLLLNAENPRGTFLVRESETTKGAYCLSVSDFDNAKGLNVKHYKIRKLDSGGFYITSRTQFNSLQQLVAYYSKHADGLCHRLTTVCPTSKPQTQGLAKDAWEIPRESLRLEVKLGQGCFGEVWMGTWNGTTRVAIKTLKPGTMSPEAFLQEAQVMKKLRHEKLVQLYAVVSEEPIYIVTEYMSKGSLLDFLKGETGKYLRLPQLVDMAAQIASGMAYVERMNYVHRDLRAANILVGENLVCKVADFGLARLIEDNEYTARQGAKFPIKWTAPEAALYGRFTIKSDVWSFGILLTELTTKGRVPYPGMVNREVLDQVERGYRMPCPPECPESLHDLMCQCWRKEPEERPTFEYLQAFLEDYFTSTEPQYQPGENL
structure (smiles),measurement,setting,value
CC(=O)NC(Cc1ccc(P(=O)(O)O)c(P(=O)(O)O)c1)C(=O)N[C@H]1CCCCc2cc(OCC3CCCCC3)c(C(N)=O)cc21 (stereo partly drawn),IC50,[1],300 nM
same,IC50,[2],1600 nM
CCCCCCOc1ccc(CCOc2cc(OCCCN)ccc2C(=O)NC(c2ccccc2)c2ccccc2)cc1,IC50,[3],< 10000 nM
CC(=O)N[C@@H](Cc1ccccc1)C(=O)N[C@H]1CCCNC(=O)[C@H](CCCN=C(N)N)NC(=O)[C@H](Cc2c[nH]c3ccccc23)NC(=O)[C@@H](CC2CCCCC2)NC(=O)[C@@H]2CCCN2C1=O,IC50,[4],20 nM
CC(=O)NC(Cc1ccc(C(=O)O)c(C=O)c1)C(=O)N[C@H]1CCCCc2cc(OCC3CCCCC3)c(C(N)=O)cc21 (stereo partly drawn),IC50,[5],60000 nM
same,IC50,[6],42900 nM
same,IC50,[7],5500 nM
CCSCCCCC(c1ccc(O)cc1)C(C)(CC)c1ccc(O)cc1 (stereo not drawn),Cell death,[8],>90%
same,IC50,[9],~9000 nM
NCCc1ccc(OCCCN=C(N)N)cc1OCCc1ccccc1,IC50,[3],770000 nM
COC(=O)N1CCN(c2ccnc(-n3ccnc3)n2)C(CC(=O)NCc2ccc3c(c2)OCO3)C1 (stereo not drawn),ED50,[10],1.2 mg/kg
same,Ki,[11],2.2 nM
same,IC50,[12],0.6 nM
O=C(CC1CNCCN1c1cc(Cl)nc(-n2ccnc2)n1)NCc1ccc2c(c1)OCO2 (stereo not drawn),IC50,[12],1.1 nM
CCCCCCOc1cccc(CCOc2cc(OCCCN)ccc2C(=O)NC2c3ccccc3-c3ccccc32)c1,IC50,[3],< 10000 nM
CCc1cc(-c2ccc(OCC(=O)O)cc2C(C)C)ccc1-c1cccc(Cc2cccc3ccccc23)c1,IC50,[13],9 nM
O=C1c2cccc3cc([N+](=O)[O-])cc(c23)C(=O)N1NCCO,IC50,[14],3720 nM
same,IC50,[15],5880 nM
same,IC50,[16],3720 nM
NC(=O)C[C@H](NC(=O)C1(NC(=O)[C@H](Cc2ccc(C(C(=O)O)C(=O)O)cc2)NC(=O)C(=O)O)CCCCC1)C(=O)NCCCc1ccc2ccccc2c1,IC50,[17],50 nM
same,Blockade,[18],50%
CCc1cc(-c2ccc(OCC(=O)O)cc2C(C)C)ccc1-c1cccc(Cc2ccc3ccccc3c2)c1,IC50,[13],20 nM
Cc1ccc(-c2ccc3c(c2)C=C(C(=O)Nc2ccc(C[N+](C)(C)C4CCOCC4)cc2)CCC3)cc1,IC50,[19],1.4 nM
